Patent publication US11999739B2, “Antimicrobials methods of making and using the same” (BIOVERSYS AG, priority 2016, dated 2024)

Assays:
[1] = tested on: Staphylococcus aureus (S. aureus) 11540 strain; experiment: Standard microdilution MIC assay, S. aureus; type: cell-based
Procedure: (§1) The in vitro activity of the compounds of the present disclosure can be determined. Antimicrobial testing is typically performed to determine the minimum inhibitory concentration (MIC). Minimum inhibitory concentrations (MICs) are determined by the microdilution method in a final volume of 100 μl according to protocols outlined by The Clinical and Laboratory Standards Institute (CLSI). Performance standards for reference strains are assessed within the same experimental design to maintain quality control. See, for example, Clinical Laboratory Standards Institute: Methods for dilution antimicrobial susceptibility tests for bacteria that grow aerobically M7-A8. Approved Standard-Eighth Edition. Wayne, PA: CLSI; December 2008; and Clinical Laboratory Standards Institute: Performance Standards for Antimicrobial Susceptibility Testing M100-S20; Approved Standard-Twentieth Edition. Wayne, PA: CLSI; June 2010.
(§2) The compounds of the present disclosure were tested for antimicrobial activity. The Compounds 1-293 were run against Escherichia coli (E co/i) strain ATCC25922 and against Staphylococcus aureus (S. aureus) 11540 strain using a standard microdilution assay to determine minimum inhibitory concentrations (MICs). […] It will be recognized by one skilled in the art that the compounds can be assessed against other bacterial organisms and that the presentation of data for activity against Escherichia coli and Staphylococcus aureus are illustrative and in no way is intended to limit the scope of the present disclosure. The compounds of the present disclosure can be assayed against a range of other microorganisms depending upon the performance activity desired to be gathered. Furthermore, the “+” and “−” representation and the selection of a cutoff value of 16 micrograms/mL is also illustrative and in no way is intended to limit the scope of the present disclosure.

[2] = tested on: Escherichia coli strain ATCC25922; experiment: Standard microdilution MIC assay, E. coli; type: cell-based
Procedure: as §1, §2

MIC [1] [µg/mL]	MIC [2] [µg/mL]	SMILES
≤ 16	≤ 16	CC(=N)NCC[C@@H]1COC[C@@H](c2ccc(-n3cc4cc(-c5cc(CCC[C@@H](N)CO)cc(Cl)c5F)[nH]c4nc3=O)cc2)N1 [Compound 54]
≤ 16	≤ 16	N=C(CF)NCC[C@@H]1COC[C@@H](c2ccc(-n3cc4cc(-c5cc(CCC[C@@H](N)CO)cc(Cl)c5F)[nH]c4nc3=O)cc2)N1 [Compound 55]
≤ 16	≤ 16	C=C[C@@H](N)CCCc1cc(Cl)c(F)c(-c2cc3cn(-c4ccc([C@@H]5COC[C@@H](CCNC(C)=N)N5)cc4)c(=O)nc3[nH]2)c1 [Compound 56]
≤ 16	≤ 16	C=C[C@@H](N)CCCc1cc(Cl)c(F)c(-c2cc3cn(-c4ccc([C@@H]5COC[C@@H](CCNC(=N)CF)N5)cc4)c(=O)nc3[nH]2)c1 [Compound 57]
≤ 16	≤ 16	N=C(CF)NCC[C@@H]1CCC[C@@H](c2ccc(-n3cc4cc(-c5cc(CCC[C@@H](N)C(F)(F)F)cc(Cl)c5F)[nH]c4nc3=O)cc2)N1 [Compound 64]
> 16	> 16	CC(=N)NCC[C@@H]1COC[C@@H](c2ccc(-n3cc4cc(-c5cc(CCC[C@@H](N)C(F)(F)F)cc(Cl)c5F)[nH]c4nc3=O)cc2)N1 [Compound 66]
> 16	> 16	N=C(CF)NCC[C@@H]1COC[C@@H](c2ccc(-n3cc4cc(-c5cc(CCC[C@@H](N)C(F)(F)F)cc(Cl)c5F)[nH]c4nc3=O)cc2)N1 [Compound 67]
≤ 16	≤ 16	CC(=N)NCC[C@@H]1COC[C@@H](c2ccc(-n3cc4cc(-c5cc(CCCC(C)(C)N)cc(Cl)c5F)[nH]c4nc3=O)cc2)N1 [Compound 68]
≤ 16	≤ 16	CC(C)(N)CCCc1cc(Cl)c(F)c(-c2cc3cn(-c4ccc([C@@H]5COC[C@@H](CCNC(=N)CF)N5)cc4)c(=O)nc3[nH]2)c1 [Compound 69]
≤ 16	≤ 16	CC(C)(CN)CCc1cc(Cl)c(F)c(-c2cc3cn(-c4ccc([C@@H]5COC[C@@H](CCNC(=N)CF)N5)cc4)c(=O)nc3[nH]2)c1 [Compound 72]
≤ 16	≤ 16	C[C@H](N)CCCc1cc(Cl)c(F)c(-c2cc3cn(-c4ccc([C@@H]5COC[C@@H](CCNC(=N)CF)N5)cc4)c(=O)nc3[nH]2)c1 [Compound 75]
≤ 16	≤ 16	C=C[C@H](N)CCCc1cc(Cl)c(F)c(-c2cc3cn(-c4ccc([C@@H]5COC[C@@H](CCNC(C)=N)N5)cc4)c(=O)nc3[nH]2)c1 [Compound 80]
≤ 16	≤ 16	C=C[C@H](N)CCCc1cc(Cl)c(F)c(-c2cc3cn(-c4ccc([C@@H]5COC[C@@H](CCNC(=N)CF)N5)cc4)c(=O)nc3[nH]2)c1 [Compound 81]
≤ 16	≤ 16	C=C[C@H](N)CCCc1cc(Cl)c(F)c(-c2cc3cn(-c4ccc([C@@H]5CCC[C@@H](CCNC(C)=N)N5)cc4)c(=O)nc3[nH]2)c1 [Compound 82]
≤ 16	≤ 16	N=C(CF)NCC[C@@H]1CCC[C@@H](c2ccc(-n3cc4cc(-c5cc(CCC[C@@H](N)C6CC6)cc(Cl)c5F)[nH]c4nc3=O)cc2)N1 [Compound 86]

The next lines start with the compound.

SMILES	MIC [1] [µg/mL]	MIC [2] [µg/mL]
C=C[C@@H](CCNC(=N)CCOCC)NCc1ccc(-n2cc3cc(-c4cc(CCC[C@H](C)N)cc(Cl)c4F)[nH]c3nc2=O)cc1 [Compound 52]	≤ 16	≤ 16
C=C[C@@H](CCNC(=N)COC)NCc1ccc(-n2cc3cc(-c4cc(CCC[C@H](C)N)cc(Cl)c4F)[nH]c3nc2=O)cc1 [Compound 53]	≤ 16	≤ 16
C=C[C@@H](CCNC(=N)CC(F)(F)F)NCc1ccc(-n2cc3cc(-c4cc(CCC[C@H](C)N)cc(Cl)c4F)[nH]c3nc2=O)cc1 [Compound 58]	≤ 16	≤ 16
C=C[C@@H](CCNC(=N)CSC)NCc1ccc(-n2cc3cc(-c4cc(CCC[C@H](C)N)cc(Cl)c4F)[nH]c3nc2=O)cc1 [Compound 59]	≤ 16	≤ 16
C=C[C@@H](CCNC(C)=N)NC(=O)c1ccc(-n2cc3cc(-c4cc(CCC[C@H](C)N)cc(Cl)c4F)[nH]c3nc2=O)cc1 [Compound 60]	≤ 16	≤ 16
C[C@H](N)CCCc1cc(Cl)c(F)c(-c2cc3cn(-c4ccc(CN[C@@H](CO)CCNC(=N)CF)cc4)c(=O)nc3[nH]2)c1 [Compound 61]	≤ 16	≤ 16
CC(=N)NCC[C@@H]1CCC[C@@H](c2ccc(-n3cc4cc(-c5cc(CCC[C@@H](N)C(F)(F)F)cc(Cl)c5F)[nH]c4nc3=O)cc2)N1 [Compound 63]	≤ 16	≤ 16
CC(=N)NCCCNCc1ccc(-n2cc3cc(-c4cc(CCCC(C)(C)N)cc(Cl)c4F)[nH]c3nc2=O)cc1F [Compound 65]	≤ 16	≤ 16
C=C[C@@H](N)CCCc1cc(Cl)c(F)c(-c2cc3cn(-c4ccc(CNCCCNC(C)=N)c(F)c4)c(=O)nc3[nH]2)c1 [Compound 70]	≤ 16	≤ 16
CC(=N)NCC[C@@H]1COC[C@@H](c2ccc(-n3cc4cc(-c5cc(CCC(C)(C)CN)cc(Cl)c5F)[nH]c4nc3=O)cc2)N1 [Compound 71]	≤ 16	≤ 16
CC(=N)NCCCNCc1ccc(-n2cc3cc(-c4cc(CCC(C)(C)CN)cc(Cl)c4F)[nH]c3nc2=O)cc1F [Compound 73]	≤ 16	≤ 16
CC(C)(CN)CCc1cc(Cl)c(F)c(-c2cc3cn(-c4ccc(CNCCCNC(=N)CF)c(F)c4)c(=O)nc3[nH]2)c1 [Compound 74]	≤ 16	≤ 16
CC(=N)NCCCNCc1ccc(-n2cc3cc(-c4cc(CCC[C@H](C)N)cc(Cl)c4F)[nH]c3nc2=O)cc1F [Compound 76]	≤ 16	≤ 16
C[C@H](N)CCCc1cc(Cl)c(F)c(-c2cc3cn(-c4ccc(CNCCCNC(=N)CF)c(F)c4)c(=O)nc3[nH]2)c1 [Compound 77]	≤ 16	≤ 16
CC(=N)NCC[C@@H]1CCC[C@@H](c2ccc(-n3cc4cc(-c5cc(CCC[C@@H](N)C6CC6)cc(Cl)c5F)[nH]c4nc3=O)cc2)N1 [Compound 78]	≤ 16	≤ 16
CC(=N)NCC[C@H](CO)NCc1ccc(-n2cc3cc(-c4cc(CCC[C@@H](N)C5CC5)cc(Cl)c4F)[nH]c3nc2=O)cc1 [Compound 79]	≤ 16	≤ 16
C=C[C@H](N)CCCc1cc(Cl)c(F)c(-c2cc3cn(-c4ccc(CN[C@@H](CO)CCNC(C)=N)cc4)c(=O)nc3[nH]2)c1 [Compound 83]	≤ 16	≤ 16
N=C(CF)NCC[C@H](CO)NCc1ccc(-n2cc3cc(-c4cc(CCC[C@@H](N)CO)cc(Cl)c4F)[nH]c3nc2=O)cc1 [Compound 84]	≤ 16	≤ 16
N=C(CF)NCC[C@H](CO)NCc1ccc(-n2cc3cc(-c4cc(CCC[C@@H](N)C5CC5)cc(Cl)c4F)[nH]c3nc2=O)cc1 [Compound 85]	≤ 16	≤ 16
C=C[C@@H](CCNC(C)=N)NCc1ccc(-n2cc3cc(-c4cc(CCC[C@@H](N)C5CC5)cc(Cl)c4F)[nH]c3nc2=O)cc1 [Compound 87]	≤ 16	≤ 16
CSC[C@@H](CCNC(=N)CF)NCc1ccc(-n2cc3cc(-c4cc(CCC[C@H](C)N)cc(Cl)c4F)[nH]c3nc2=O)cc1 [Compound 88]	≤ 16	≤ 16
C=C[C@@H](CCNC(=N)CF)NCc1ccc(-n2cc3cc(-c4cc(CCC[C@@H](N)C5CC5)cc(Cl)c4F)[nH]c3nc2=O)cc1 [Compound 89]	≤ 16	≤ 16
CC(=N)NCC[C@@H]1CCC[C@@H](c2ccc(-n3cc4cc(-c5cc(CCC(F)(F)CN)cc(Cl)c5F)[nH]c4nc3=O)cc2)N1 [Compound 90]	≤ 16	≤ 16
CC(=N)NCC[C@H](CO)NCc1ccc(-n2cc3cc(-c4cc(CCC(F)(F)CN)cc(Cl)c4F)[nH]c3nc2=O)cc1 [Compound 91]	≤ 16	≤ 16
C=C[C@@H](N)CCCc1cc(Cl)c(F)c(-c2cc3cn(-c4ccc([C@H](C)NCCCNC(C)=N)c(F)c4)c(=O)nc3[nH]2)c1 [Compound 92]	≤ 16	≤ 16
CC(=N)NCCCN[C@@H](C)c1ccc(-n2cc3cc(-c4cc(CCC[C@H](C)N)cc(Cl)c4F)[nH]c3nc2=O)cc1F [Compound 93]	≤ 16	≤ 16
C[C@H](N)CCCc1cc(Cl)c(F)c(-c2cc3cn(-c4ccc([C@H](C)NCCCNC(=N)CF)c(F)c4)c(=O)nc3[nH]2)c1 [Compound 94]	≤ 16	≤ 16
CSC[C@@H](CCNC(C)=N)NCc1ccc(-n2cc3cc(-c4cc(CCC[C@H](C)N)cc(Cl)c4F)[nH]c3nc2=O)cc1 [Compound 95]	≤ 16	≤ 16
CC(=N)NCC[C@H](CO)N[C@@H](C)c1ccc(-n2cc3cc(-c4cc(CCC[C@H](C)N)cc(Cl)c4F)[nH]c3nc2=O)cc1 [Compound 96]	≤ 16	≤ 16
C[C@H](N)CCCc1cc(Cl)c(F)c(-c2cc3cn(-c4ccc([C@H](C)N[C@@H](CO)CCNC(=N)CF)cc4)c(=O)nc3[nH]2)c1 [Compound 97]	≤ 16	≤ 16
